Assay results from patent US9440901B2, “Method for producing reduced coenzyme Q10” (KANEKA CORPORATION, priority 2012, dated 2016).

Assays:
[1] = solubility of the crystal forms of reduced coenzyme Q10; assay type: physicochemical; conditions: compared to Form I crystal
[2] = background statement; cited from earlier work

SMILES | solubility compared with conventional reduced coenzyme Q10 crystals (Form I) [1] | oral absorbability compared to oxidized coenzyme Q10 [2]
COc1c(O)c(C)c(C/C=C(\C)CC/C=C(\C)CC/C=C(\C)CC/C=C(\C)CC/C=C(\C)CC/C=C(\C)CC/C=C(\C)CC/C=C(\C)CC/C=C(\C)CCC=C(C)C)c(O)c1OC [Form II, reduced coenzyme Q10] | lower solubility | –
COc1c(O)c(C)c(C/C=C(\C)CC/C=C(\C)CC/C=C(\C)CC/C=C(\C)CC/C=C(\C)CC/C=C(\C)CC/C=C(\C)CC/C=C(\C)CC/C=C(\C)CCC=C(C)C)c(O)c1OC [reduced coenzyme Q10] | – | high oral absorbability
